Experimental data taken from patent publication US12606543B2, “Indole derivatives as serotonergic agents useful for the treatment of disorders related thereto” (priority 2023, dated 2026).
pEC50, pIC50: −log10 of the molar value. Read-outs that look alike come from different tables or passages of the source.

Key:
[1] = molecular target: T1, human 5-hydroxytryptamine receptor 1A (5-HT1A) (Homo sapiens, UniProt P08908); experiment: Human 5-HT1A radioligand binding assay ([3H]-8-Hydroxy-DPAT)
T1 sequence (P08908 1-422): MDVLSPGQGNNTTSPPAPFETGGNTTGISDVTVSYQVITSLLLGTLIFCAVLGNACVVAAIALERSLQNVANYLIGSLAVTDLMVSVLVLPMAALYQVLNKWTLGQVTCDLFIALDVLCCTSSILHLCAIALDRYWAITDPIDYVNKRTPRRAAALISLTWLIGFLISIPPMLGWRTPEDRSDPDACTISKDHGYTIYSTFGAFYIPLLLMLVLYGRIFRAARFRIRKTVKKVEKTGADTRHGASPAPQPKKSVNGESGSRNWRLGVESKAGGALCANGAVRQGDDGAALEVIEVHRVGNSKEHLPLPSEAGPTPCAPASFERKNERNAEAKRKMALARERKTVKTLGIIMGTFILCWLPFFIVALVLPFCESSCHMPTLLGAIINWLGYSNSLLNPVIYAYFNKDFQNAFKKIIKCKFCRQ
Method: The objective of this study was to evaluate the binding properties of test compounds on 5-hydroxytryptamine receptor 1A (5-HT1A).
1. The assay buffer was prepared following Table 25 below.
2. 8 doses of reference and test compounds were prepared starting from 10 mM stock solution as required by 5-fold serial dilutions with 100% (v/v) DMSO.
3. UniFilter-96 GF/B plate was pretreated: • i. 50 μl/well of 0.5% (v/v) PEI was added to UniFilter-96 GF/B plates. The plates were sealed and incubated at 4° C. for 3 hrs. • ii. After incubation, the plates were washed 3 times with ice-cold wash buffer (50 mM Tris, pH7.4).
4. Assay plate was prepared: • i. Cell membrane was diluted with assay buffer and 100 μl/well was added to 96 round well plates to reach a concentration of 20 μg/well. • ii. 8 concentrations of reference or test compounds were prepared and 50 μl/well was added to 96 round deep well plates. • iii. [3H]-8-Hydroxy-DPAT was diluted with assay buffer to 2 nM (4× final concentration) and 50 μl/well was added to 96 round well plates.
5. The plate was centrifuged at 1000 rpm for 30 secs and then agitated at 600 rpm at room temperature for 5 min.
6. The plates were sealed and the plate was incubated at 27° C. for 90 min.
(§1) 7. The incubation was stopped by vacuum filtration onto GF/B filter plates followed by 4 times washing with ice-cold wash buffer (50 mM Tris, pH7.4).
(§2) 9. The filter plates were sealed and 40 μl/well of scintillation cocktail was added.
(§3) 10. The plate was read by using a Microbeta^2 microplate counter.
(§4) 1. For reference and test compounds, the results were expressed as % Inhibition, using the normalization equation: N=100−100×(U−C2)/(C1−C2), where U is the unknown value, C1 is the average of high controls, and C2 is the average of low controls.
2. The IC50 was determined by fitting percentage of inhibition as a […] of compound concentrations with Hill equation using XLfit.
1. The assay buffer was prepared following Table 55 below.
3. UniFilter-96 GF/B plate was pretreated: • i. 50 μL/well of 0.5% (v/v) PEI was added to UniFilter-96 GF/B plates. The plates were sealed and incubated at 4° C. for 3 hrs. • ii. After incubation, the plates were washed 3 times with ice-cold wash buffer (50 mM Tris, pH7.4).
4. Assay plate was prepared: • i. Cell membrane was diluted with assay buffer and 100 μl/well was added to 96 round well plates to reach a concentration of 20 μg/well. • ii. 8 concentrations of reference or test compounds were prepared and 50 μl/well was added to 96 round deep well plates. • iii. [3H]-8-Hydroxy-DPAT was diluted with assay buffer to 2 nM (4× final concentration) and 50 μL/well was added to 96 round well plates.

[2] = molecular target: human 5-hydroxytryptamine receptor 2A (5-HT2A) (Homo sapiens, UniProt P28223); experiment: biochemical; format: binding
Sequence of human 5-hydroxytryptamine receptor 2A (5-HT2A) (P28223 whole entry): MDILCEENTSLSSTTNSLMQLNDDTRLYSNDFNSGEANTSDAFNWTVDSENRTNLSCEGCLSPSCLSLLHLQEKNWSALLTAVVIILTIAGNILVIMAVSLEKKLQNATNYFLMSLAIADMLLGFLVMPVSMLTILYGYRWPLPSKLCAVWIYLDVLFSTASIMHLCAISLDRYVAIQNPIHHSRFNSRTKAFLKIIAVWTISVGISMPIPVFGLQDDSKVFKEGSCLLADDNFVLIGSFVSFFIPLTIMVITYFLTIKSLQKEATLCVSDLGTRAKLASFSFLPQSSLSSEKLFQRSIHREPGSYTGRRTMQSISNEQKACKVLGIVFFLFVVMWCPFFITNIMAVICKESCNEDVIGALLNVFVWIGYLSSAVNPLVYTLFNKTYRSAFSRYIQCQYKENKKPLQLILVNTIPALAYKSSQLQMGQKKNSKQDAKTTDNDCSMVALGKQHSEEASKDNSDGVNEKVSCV
Method: The objective of this study was to evaluate the binding properties of exemplary compounds of Formula (I) on 5-hydroxytryptamine receptor 2A (5-HT2A).
1. The assay buffer was prepared following Table 17 below.
2. 8 doses of reference and test compounds starting from 10 mM stock solution as required were prepared by 5-fold serial dilutions with 100% (v/v) DMSO.
3. UniFilter-96 GF/B plate was pretreated: • i. 50 μl/well of 0.5% (v/v) PEI was added to UniFilter-96 GF/C plates. The plates were sealed and incubated at 4° C. for 3 hours (hrs). • ii. After incubation, the plates were washed 3 times with ice-cold wash buffer (50 mM Tris, pH7.4).
4. The assay plate was prepared: • i. Cell membrane was diluted with assay buffer and 330 μl/well was added to 96 round deep well plates to reach a concentration of 20 μg/well. • ii. 8 concentrations of reference or test compounds were prepared and 110 μl/well was added to 96 round deep well plates. • iii. [3H]-ketanserin was diluted with assay buffer to 5 nM (5× final concentration) and 110 μl/well was added to 96 round deep well plates.
5. The plate was centrifuged at 1000 rpm for 30 seconds (secs) and then agitated at 600 rpm at room temperature for 5 min.
6. The plates were sealed and the plate incubated at 27° C. for 90 min.
as §1
8. The filter plates were sealed and 40 μl/well of scintillation cocktail was added.
as §3, §4
2. The IC50 was determined by fitting percentage of inhibition as a function of compound concentrations with Hill equation using XLfit. […]
as §2

human 5-HT2A receptor = molecular target: T2, human 5-HT2A receptor (Homo sapiens, UniProt P28223); experiment: Human 5-HT2A β-arrestin reporter assay; format: cell-based; conditions: for Emax (% of serotonin): U2OS cells, relative to maximum response of serotonin
T2 construct: expressed in transfected cells; host or cells: U2OS
T2 sequence (P28223 whole entry): as above
Method: Compound potency (EC50) and efficacy (Max response) against the human 5-HT2A receptor in stably transfected U2OS cells were determined in a G protein-coupled receptors (GPCR) cell based β-arrestin reporter assay.
(§5) Cells were seeded in a total volume of 20 μL into white walled, 384-well microplates and incubated at 37° C. overnight before analysis. For agonist determination, cells were incubated with samples to induce response. Intermediate dilution of sample stocks was performed to generate 5× samples in assay buffer. 5 μL of 5× samples were added to cells and incubated at 37° C. for 120 minutes. The final assay vehicle concentration was 1%. The results are expressed as percent efficacy relative to the maximum response of the control ligand (serotonin) in Table 10.
Compound potency (EC50) and efficacy (Max response) against the human 5-HT2A receptor in stably transfected U2OS cells was determined in a GPCR cell based β-arrestin reporter assay.
as §5, with “with sample” for “with samples”, “120 mins.” for “120 minutes.”, “Table 48.” for “Table 10.”

[3] = β-arrestin reporter, stably transfected U2OS cells, 120 min, read-out: EC50

[2H]C([2H])(c1c[nH]c2ccc(OCCCCCN3C(=O)C4CCCCC4C3=O)cc12)[C@H]1CCCN1C([2H])([2H])[2H] (mixture of isomers) [Rac (R) I-248]
pIC50 [1]: 8.08
pIC50 [2]: 6.51

CSc1ccc2[nH]cc(C[C@H]3CCCN3C)c2c1 [(R) I-1, (R)-3-((1-Methylpyrrolidin-2-yl)methyl)-5-(methylthio)-1H-indole]
pIC50 [1]: 8.52
pEC50 (human 5-HT2A receptor): 7.60
Emax (% of serotonin) (human 5-HT2A receptor; β-arrestin reporter): 79.27 % of serotonin
pIC50 [2]: 6.81

COCCN1CCC[C@@H]1Cc1c[nH]c2ccc(OC)cc12 [(R) I-98, (R)-5-Methoxy-3-((1-(2-methoxyethyl)pyrrolidin-2-yl)methyl)-1H-indole]
pIC50 [1]: 8.30
Emax (% of serotonin) (human 5-HT2A receptor; β-arrestin reporter): 81.67 % of serotonin
pEC50 (human 5-HT2A receptor; [3]): 7.59
pIC50 [2]: 6.46

[2H]C([2H])(c1c[nH]c2ccc(OCCCCN3C(=O)c4ccccc4C3=O)cc12)[C@H]1CCCN1C([2H])([2H])[2H] [(R) I-244, (R)-2-(4-((3-((1-(Methyl-d3)pyrrolidin-2-yl)methyl-d2)-1H-indol-5-yl)oxy)butyl)isoindoline-1,3-dione]
pIC50 [1]: 7.82
Emax (% of serotonin) (human 5-HT2A receptor; β-arrestin reporter): 79.58 % of serotonin
pEC50 (human 5-HT2A receptor; [3]): 8.17
pIC50 [2]: 6.89

[2H]C([2H])(c1c[nH]c2ccc(OCCCCCN3C(=O)c4ccccc4C3=O)cc12)[C@H]1CCCN1C([2H])([2H])[2H] [(R) I-245, (R)-2-(5-((3-((1-(Methyl-d3)pyrrolidin-2-yl)methyl-d2)-1H-indol-5-yl)oxy)pentyl)isoindoline-1,3-dione]
pIC50 [1]: 8.30
Emax (% of serotonin) (human 5-HT2A receptor; β-arrestin reporter): 82.18 % of serotonin
pEC50 (human 5-HT2A receptor; [3]): 7.55
pIC50 [2]: 6.65

[2H]C([2H])(c1c[nH]c2ccc(OCCCCCN3C(=O)[C@H]4CCCC[C@H]4C3=O)cc12)[C@H]1CCCN1C([2H])([2H])[2H] [Cis (R) I-248, 2-(5-((3-(((R)-1-(Methyl-d3)pyrrolidin-2-yl)methyl-d2)-1H-indol-5-yl)oxy)pentyl)hexahydro-1H-isoindole-1,3(2H)-dione]
Emax (% of serotonin) (human 5-HT2A receptor; β-arrestin reporter): 84.4 % of serotonin
pEC50 (human 5-HT2A receptor; [3]): 6.95

CN(C)CCc1c[nH]c2ccccc12 [DMT]
Emax (% of serotonin) (human 5-HT2A receptor; β-arrestin reporter): 38.86 % of serotonin
pEC50 (human 5-HT2A receptor; [3]): 6.94
pIC50 ([2]; [3H]-ketanserin displacement, cell membrane, 27° C., 90 min, read-out: h5-HT2A, IC50): 6.02
